In one data set the test system is cholesterol-fed hamsters. Description: Effect on serum lipids of cholesterol-fed hamsters (serum total cholesterol and triglyceride reduction rate). To be noted: cholesterol-fed Syrian hamsters, oral once a day for 5 days, dose 25 mg/kg. Type of data set: in vivo. How it is done: Pharmacological Test Example 1: Effect on serum lipids of cholesterol-fed hamsters
Syrian hamsters (Std:Syrian, Male, 4 weeks old) were freely fed with chow containing 1% cholesterol and 10% coconut oil for 3 weeks ad libitum.
At the last week of feeding, each of the test compounds was dissolved or suspended in either 0.1% hydrochloric acid solution or 1% polyethylene-hydrogenated castor oil (NIKKOL HCO-60) solution and was orally administrated to hamsters once a day for 5 days. For the hamsters of the control group, only the solvent was orally administered. Then, blood was collected from the abdominal vein under the condition of anesthesia with pentobarbital at 2-4 hours after the last administration, and the serum in the blood was separated. The serum total cholesterol value and the serum triglyceride value were determined by using autobiochemical analyzer with analizing kits, and reduction rate of the serum lipids was determined according to the equation indicated below based on the analyzed values for respective hamster groups.
Serum lipids reduction rate (%)=(Amount of serum lipids of the control group−Amount of serum lipids of the group administrated with the test compound)/Amount of serum lipids of the control group×100

The test system of data set [1] is carbon tetrachloride induced liver damage model in rats. Description: Carbon tetrachloride induced liver damage model in rats (lipid peroxide in liver; serum GOT, GPT). Type of data set: in vivo, rats (SD-strain, male). The note with it: CCl4: 0.5 ml/kg, dose 100 mg/kg oral 3 times. The protocol:
Pharmacological Test Example 3: Effect on lipid peroxidation […] Effect of the compounds of the present invention on the produced lipid peroxide in liver was examined on carbon tetrachloride induced liver damage model in rats. Briefly, providing 5 SD-strain male rats (6 weeks old) for each group, carbon tetrachloride at the rate of 1 ml/kg or 2 ml/kg (0.5 ml/kg or 1 ml/kg based on carbon tetrachloride) was orally administered to the rats together with the equivalent dose of olive oil. At 24 hours after the administration of carbon tetrachloride, their livers were excised, and the produced amount of lipid peroxide in liver was determined by thiobarbituric acid method according to Uchiyama's method (Uchiyama, M., et al., Analytical biochemistry, 86, 271-278 (1978)). In parallel, as the indicator for liver disorder due to carbon tetrachloride, serum enzyme activity (GOT, GPT) was measured. Then each of the test compounds, which was either dissolved or suspended in either 0.1% hydrochloric acid solution or olive oil, was orally administered to the rats 3 times at 1 before and, 3 and 6 hours after the administration of carbon tetrachloride. For the rats of normal group and control groups, the solvent was orally administered. Based on the measured values for each groups, the inhibitory rate of producing peroxidized lipids and the inhibitory rate of causing liver disorder were calculated according to the following equation. Inhibitory rate of producing lipid peroxide (%)=[1−(Produced amount of lipid peroxide in the test compound group−Produced amount of lipid peroxide in the normal rat group)/(Produced amount of lipid peroxide in the control group−Produced amount of lipid peroxide in the normal rat group)]×100 Liver disorder preventing rate (%)=[1−(GOT amount of GPT amount in the test compound group−GOT amount or GPT amount in the normal rat group)/(GOT amount or GPT amount in the control group−GOT amount or GPT amount in the normal rat group)]×100 The results are presented in Table 8.

For data set [2], the system named is Lipid peroxidation activity in rat liver microsome. Description: Effect on lipid peroxidation in vitro (rat liver microsome, thiobarbituric acid method). The data set is classed as biochemical. To be noted: rat liver microsomes, 500 μM cystein and 5 μM ferrous(II) sulfate, malonaldehyde by thiobarbituric acid method; read-out: Lipid Antiperoxidation Activity 50% Inhibition Concentration (IC50). How it is done: Pharmacological Test Example 2: Effect on lipid peroxidation in vitro
Lipid peroxidation activity in rat liver microsome was determined according to the method of Malvy et al. (Malvy et al., Biochemical and Biophysical Research Communications, 95, 734-737 (1980)). More particularly, 500 μM cystein and 5 μM ferrous(II) sulfate were incubated with rat liver microsomes, and the amount of malonaldehyde produced due to the decomposition of lipid peroxide was determined according to thiobarbituric acid method. The concentration of the compounds required to inhibit the formation of lipid peroxide by 50% (IC50) was calculated.

The test system of a further data set is rats (male SD-strain). The note with it: rat, in vivo, 100 mg/kg/day. How it is done: Pharmacological Test Example 4: Repeated Oral Administration Toxicity
The Compound with No. 3-1 was suspended in 1% polyethylene-hardened castor oil (NIKKOL HCO-60) solution, and the suspension was orally administered to rats (male SD-strain), 6 rats per group, at a rate of 100 mg/kg/day for 7 days.

As to `Cc1c(C)c2c(c(C)c1O)CCC(C)(C(=O)Nc1ccc(-n3ccnc3)cc1)O2` (racemic) [Compound No. 3-1, (±)-(6-Hydroxy-2,5,7,8-tetramethylchroman-2-yl)-N-[4-(imidazol-1-yl)phenyl]carboxamide], in the data set with cholesterol-fed hamsters, the “Serum lipids reduction rate comparing to Control group (%), Means of 3 animals: Total cholesterol” value came out at 40% and the “Serum lipids reduction rate comparing to Control group (%), Means of 3 animals: Triglyceride” value amounted to 62%. Moreover, in data set [1] (liver at 24 hours), the “Antioxidation Activity of Lipid: Mass of lipid peroxide” value worked out at 2.361 A535nm/g lever and the “Antioxidation Activity of Lipid: Prevention Rate” value is recorded as 96%. In addition, in data set [1] (serum), the “Preventive Activity on Liver Disorder: GOT” value turned out to be 137 IU/L, the “Preventive Activity on Liver Disorder: GOT Prevention Rate” value is reported as 100%, the “Preventive Activity on Liver Disorder: GPT” value is on record as 61 IU/L and the “Preventive Activity on Liver Disorder: GPT Prevention Rate” value came out at 86%. For the same molecule, the IC50 in data set [2] worked out at 2.7 µM. For the same molecule, the “Repeated oral administration toxicity (death, toxicological symptoms)” value in the data set on rats (male SD-strain) was “neither death nor any toxicological symptoms were observed”.

The values are drawn from patent publication US6342516B1, “Phenylazole compounds, process for producing the same and drugs for hyperlipemia” (Nippon Soda Co., Ltd., priority 1998, dated 2002).
